Test systems include CCRF-CEM leukemia; SK-MEL-2 melanoma; K-562 leukemia; KM12 colon; M14 melanoma; EKVX NSCLC; SK-MEL-28 melanoma; ACHN renal; HCT-116 colon.
Test in all cases: NCI-60 cell line screen, 48 h

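Exposure lasted 48 hours, with cells grown in 96-well plates and compounds tested at five concentrations. The concentration for 50% growth inhibition is given as GI50. TGI marks complete inhibition of growth.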

As to `COc1ccc2c3c([nH]c2c1[N+](=O)[O-])C(C)N(C(=O)/C=C/c1ccccc1)CC3` (centres undefined), the TGI with CCRF-CEM leukemia, in the assay on SK-MEL-2 melanoma, in the assay with K-562 leukemia, in the assay on KM12 colon, with M14 melanoma and in the assay with EKVX NSCLC was > 100 µM each time. Also, the TGI with SK-MEL-28 melanoma and in the assay with ACHN renal was > 100 µM in each case.

Consider `CC(=O)N1C(=O)C(=O)c2cc(Cl)ccc21`, for which the TGI with K-562 leukemia, in the assay on KM12 colon, in the assay on M14 melanoma, with EKVX NSCLC, in the assay with SK-MEL-28 melanoma and with ACHN renal was > 100 µM each time.

`CCCCCCCCCCSS(=O)(=O)c1ccc(C)cc1`: the TGI worked out at 26.8 µM with HCT-116 colon; 12.4 µM with SK-MEL-2 melanoma; 46.8 µM in the assay on K-562 leukemia; 30.4 µM in the assay with KM12 colon; 25 µM with M14 melanoma; 27 µM in the assay on EKVX NSCLC. Also, the TGI in the assay with SK-MEL-28 melanoma worked out at 10.2 µM; in the assay with ACHN renal it was 31 µM.

Consider `CC(=O)[CH-]C(=O)c1ccccc1.CC(=O)[CH-]C(=O)c1ccccc1.CC(C)CCCC(C)[C@H]1CCC2[C@@H]3CCC4C[C@@H]([O-])CC[C@]4(C)C3CC[C@@]21C.CC(C)CCCC(C)[C@H]1CCC2[C@@H]3CCC4C[C@@H]([O-])CC[C@]4(C)C3CC[C@@]21C.Cl.[Ti+4]` (some centres undefined), for which the GI50 in the assay with CCRF-CEM leukemia, with HCT-116 colon, in the assay with SK-MEL-2 melanoma, with K-562 leukemia, in the assay on KM12 colon and in the assay with M14 melanoma was > 25 µM throughout. The GI50 with EKVX NSCLC, in the assay with SK-MEL-28 melanoma and with ACHN renal was > 25 µM each time. Moreover, the TGI with CCRF-CEM leukemia, in the assay with HCT-116 colon, with SK-MEL-2 melanoma, with K-562 leukemia, in the assay on KM12 colon and in the assay on M14 melanoma was > 25 µM in each case. Also, the TGI in the assay with EKVX NSCLC, with SK-MEL-28 melanoma and with ACHN renal was > 25 µM each time.

`C=CCCC12CCCC(=O)C1Sc1ccc3ccccc3c12` (centres undefined): the TGI with CCRF-CEM leukemia was 53.8 µM; in the assay with SK-MEL-2 melanoma, 32.8 µM; in the assay on K-562 leukemia, > 100 µM; with KM12 colon, 31.2 µM; in the assay with M14 melanoma it was 31.1 µM; in the assay on EKVX NSCLC, 64.2 µM. Also, the TGI with SK-MEL-28 melanoma was > 100 µM; in the assay with ACHN renal it was 92.3 µM.

Take `CC(C)[C@H](COC(C)(C)C)N=CN1CSc2ccccc21`: the TGI is > 100 µM with CCRF-CEM leukemia; 79.2 µM with HCT-116 colon; > 100 µM in the assay with SK-MEL-2 melanoma; > 100 µM in the assay with K-562 leukemia; > 100 µM in the assay on KM12 colon; > 100 µM in the assay on M14 melanoma. Further, the TGI with EKVX NSCLC was > 100 µM; in the assay with SK-MEL-28 melanoma, > 100 µM; with ACHN renal, 71.4 µM.

For the compound `O=C(CN1C(=O)c2ccccc2C1=O)OC1C=CCCC1` (centres undefined), the TGI in the assay on CCRF-CEM leukemia, with HCT-116 colon, with SK-MEL-2 melanoma, in the assay with K-562 leukemia, with KM12 colon and in the assay on M14 melanoma was > 100 µM each time. The TGI in the assay with EKVX NSCLC, with SK-MEL-28 melanoma and in the assay with ACHN renal was > 100 µM throughout.

On to `COC(=O)/C=C\C1C(C(=O)OC)C2(C(=O)OC)CCC1(C(=O)OC)N2` (centres undefined), for which the TGI in the assay on CCRF-CEM leukemia came to 21.8 µM; in the assay with HCT-116 colon it was 27.6 µM; with SK-MEL-2 melanoma, 30 µM; in the assay on K-562 leukemia, 53.2 µM; in the assay with KM12 colon it was 36.7 µM; with M14 melanoma, 28.8 µM. In addition, the TGI in the assay on EKVX NSCLC was > 60.2 µM; with SK-MEL-28 melanoma, 26.4 µM; with ACHN renal, 22.7 µM.

`COc1ccc2c(CCNS(=O)(=O)c3ccccc3)c(C(C)=O)[nH]c2c1[N+](=O)[O-]`: the TGI in the assay on CCRF-CEM leukemia, in the assay with HCT-116 colon, with SK-MEL-2 melanoma, in the assay with K-562 leukemia, in the assay on KM12 colon and in the assay with M14 melanoma was > 100 µM in each case. Besides, the TGI with ACHN renal is > 100 µM.

Regarding `CC[O+]=c1cccc2ssnc1-2`, the TGI with CCRF-CEM leukemia, in the assay with HCT-116 colon, in the assay with SK-MEL-2 melanoma, in the assay with K-562 leukemia, in the assay on KM12 colon and with M14 melanoma was > 100 µM in each case. Besides, the TGI in the assay with EKVX NSCLC, in the assay with SK-MEL-28 melanoma and in the assay with ACHN renal was > 100 µM throughout.

For the compound `CC(=O)C1C(=O)C(=O)N(c2ccc(Cl)cc2C)C1=O` (centres undefined), the TGI in the assay with CCRF-CEM leukemia, in the assay with HCT-116 colon, in the assay with SK-MEL-2 melanoma, in the assay on K-562 leukemia, with KM12 colon and in the assay on M14 melanoma was > 100 µM in each case. The TGI in the assay on EKVX NSCLC, with SK-MEL-28 melanoma and with ACHN renal was > 100 µM throughout.

Turning to `CCC1(c2ccncc2)CCC(=O)NC1=O` (centres undefined), the TGI in the assay with CCRF-CEM leukemia, in the assay on HCT-116 colon, in the assay with SK-MEL-2 melanoma, in the assay with K-562 leukemia, in the assay on KM12 colon and with M14 melanoma was > 100 µM each time. Further, the TGI with EKVX NSCLC, in the assay with SK-MEL-28 melanoma and in the assay on ACHN renal was > 100 µM each time.

For `CC1=C(CC/C(C)=C/CCC2(C)CCC([C@H](C)C(=O)O)OO2)C(C)(C)CCC1` (some centres undefined) (tested in a mixture with another compound), the TGI in the assay on HCT-116 colon, with SK-MEL-2 melanoma, with KM12 colon, in the assay with M14 melanoma, in the assay with EKVX NSCLC and in the assay with SK-MEL-28 melanoma was > 100 µM each time. Moreover, the TGI in the assay on ACHN renal was > 100 µM.

On to `C/C(=C\c1ccccc1)C(O)S(=O)(=O)O` (centres undefined), for which the TGI with CCRF-CEM leukemia, with HCT-116 colon, in the assay with SK-MEL-2 melanoma, with K-562 leukemia, in the assay on KM12 colon and with M14 melanoma was > 100 µM throughout. Besides, the TGI with EKVX NSCLC, in the assay with SK-MEL-28 melanoma and in the assay on ACHN renal was > 100 µM throughout.

Regarding `C=CC1(C)/C(=N\O)C(C)(CC)C(=O)N1O` (centres undefined), the TGI in the assay with CCRF-CEM leukemia, in the assay on HCT-116 colon, in the assay with SK-MEL-2 melanoma, with K-562 leukemia, with KM12 colon and with M14 melanoma was > 100 µM each time. The TGI in the assay on EKVX NSCLC, with SK-MEL-28 melanoma and in the assay with ACHN renal was > 100 µM in each case.

The values above are taken from PubChem BioAssay (NCI).
